Data from patent publication US10138229B2, “Heteroaromatic compounds as BTK inhibitors” (Boehringer Ingelheim International GmbH, priority 2012, dated 2018).

Each molecule was assayed against BTK (Homo sapiens (Human), UniProt Q06187) (assay: Inhibition of B-cell activation measured by CD69 expression in primary CD19+ cells). Conditions: primary CD19+ cells stimulated with anti-human IgD, CD69 expression by flow cytometry.
Format: cell-based
Description: Cells were collected and plated in a 96 flat bottom plate at a concentration of 2×10^5/well in RPMI media containing 10% FBS, rested for 1 hour at 37° c. Cells were treated with inhibitor in duplicates or vehicle control in 1% DMSO final concentration for 1 hour at 37° c., 5% CO2. […] B cells were analyzed by flow cytometry using a BD LSRII or BD FACsCanto Flow Cytometer. Viable cells were gated, and CD69 percentage was determined using FlowJo software.

BTK, sequence (Q06187 whole entry): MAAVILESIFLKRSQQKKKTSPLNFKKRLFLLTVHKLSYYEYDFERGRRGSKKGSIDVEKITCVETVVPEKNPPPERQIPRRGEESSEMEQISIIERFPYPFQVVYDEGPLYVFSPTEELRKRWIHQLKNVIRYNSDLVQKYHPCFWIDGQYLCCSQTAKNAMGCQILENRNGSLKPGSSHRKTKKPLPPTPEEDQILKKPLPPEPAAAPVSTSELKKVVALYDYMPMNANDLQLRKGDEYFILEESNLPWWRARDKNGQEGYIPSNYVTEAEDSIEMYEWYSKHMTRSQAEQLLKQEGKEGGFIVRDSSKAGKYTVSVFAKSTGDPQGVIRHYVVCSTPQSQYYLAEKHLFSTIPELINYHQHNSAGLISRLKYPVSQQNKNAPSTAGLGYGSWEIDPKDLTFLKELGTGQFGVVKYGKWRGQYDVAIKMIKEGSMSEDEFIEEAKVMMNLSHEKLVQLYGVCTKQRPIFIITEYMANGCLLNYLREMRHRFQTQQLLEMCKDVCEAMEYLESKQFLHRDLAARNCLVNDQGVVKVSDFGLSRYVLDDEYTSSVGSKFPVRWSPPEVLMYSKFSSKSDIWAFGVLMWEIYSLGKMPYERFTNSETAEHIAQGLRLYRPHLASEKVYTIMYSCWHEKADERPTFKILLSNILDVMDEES

| IC50 [nM] | SMILES |
| --- | --- |
| 9 | C=CC(=O)N1CC2(CC(n3cc(C(N)=O)c(-c4ccc(Oc5ccccc5)cc4)n3)C2)C1 [Example 28] |

Each molecule was assayed against EGFR (Homo sapiens (Human), UniProt P00533) (assay: Inhibition of EGFR autophosphorylation in A431 human epithelial cells stimulated with EGF). Conditions: EGF 60 ng/mL, phospho EGFR, read-out: A431 p-EGFR IC50.
EGFR, sequence (P00533 25-1210): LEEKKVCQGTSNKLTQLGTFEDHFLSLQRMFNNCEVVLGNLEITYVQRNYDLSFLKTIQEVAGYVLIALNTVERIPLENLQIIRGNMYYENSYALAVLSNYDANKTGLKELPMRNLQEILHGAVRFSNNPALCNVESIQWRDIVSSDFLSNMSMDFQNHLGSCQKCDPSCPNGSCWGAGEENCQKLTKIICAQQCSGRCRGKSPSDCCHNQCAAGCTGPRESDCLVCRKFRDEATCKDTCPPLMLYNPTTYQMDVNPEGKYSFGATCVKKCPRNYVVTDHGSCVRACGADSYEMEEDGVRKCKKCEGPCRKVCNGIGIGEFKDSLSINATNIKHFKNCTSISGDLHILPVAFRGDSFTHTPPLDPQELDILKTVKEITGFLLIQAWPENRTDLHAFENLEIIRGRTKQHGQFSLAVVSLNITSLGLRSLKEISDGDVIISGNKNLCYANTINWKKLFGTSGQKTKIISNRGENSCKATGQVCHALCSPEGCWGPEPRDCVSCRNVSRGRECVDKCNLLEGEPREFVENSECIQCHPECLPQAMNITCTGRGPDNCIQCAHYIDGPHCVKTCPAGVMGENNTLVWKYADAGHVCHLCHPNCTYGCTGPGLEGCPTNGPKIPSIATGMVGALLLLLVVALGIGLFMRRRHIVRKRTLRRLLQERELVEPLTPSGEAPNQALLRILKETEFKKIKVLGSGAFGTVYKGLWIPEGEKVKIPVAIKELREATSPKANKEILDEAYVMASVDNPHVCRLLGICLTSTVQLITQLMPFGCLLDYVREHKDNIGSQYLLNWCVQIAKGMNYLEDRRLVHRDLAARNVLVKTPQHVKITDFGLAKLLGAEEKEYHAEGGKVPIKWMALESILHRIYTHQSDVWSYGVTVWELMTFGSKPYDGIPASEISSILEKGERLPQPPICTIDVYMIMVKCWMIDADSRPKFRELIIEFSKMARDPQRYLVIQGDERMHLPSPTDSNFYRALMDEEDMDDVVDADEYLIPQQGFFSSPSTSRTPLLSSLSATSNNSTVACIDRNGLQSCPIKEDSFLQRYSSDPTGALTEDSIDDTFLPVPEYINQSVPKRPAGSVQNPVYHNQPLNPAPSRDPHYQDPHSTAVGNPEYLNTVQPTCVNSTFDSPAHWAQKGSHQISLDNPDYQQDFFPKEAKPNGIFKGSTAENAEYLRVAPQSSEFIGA
Format: cell-based
Excerpt: The compounds described herein show a range of selectivities against EGFR as measured in cellular assays (BTK activity measured by CD69 expression in primary CD19^+ cells; EGFR activity measured by EGFR phosphorylation in A431 cells).
Inhibition of EGFR Autophosphorylation in A431 Human Epithelial Cells Stimulated with Epithelial Growth Factor
A431 cells (ATCC # CRL-1555 FZ) are thawed and plated in DMEM containing 10% FBS in a 384-well tissue culture treated plate at 15,000 cells/well. After incubating for 24 hours at 37° C., 5% CO2, the cells are treated with test compound (1% DMSO final concentration) and incubated for 16 hours at 37° C., 5% CO2. EGF (Millipore, 01-107) is added at a final concentration of 60 ng/mL and incubated for 10 minutes. The medium is removed, the cells are lysed, and phospho EGFR is measured (Meso Scale Diagnostics, N31CB-1).

| IC50 [nM] | SMILES |
| --- | --- |
| 4700 | C=CC(=O)N1CC2(CC(n3cc(C(N)=O)c(-c4ccc(Oc5ccccc5)cc4)n3)C2)C1 [Example 28] |
| 6.6 | C=CC(=O)N1CCC[C@@H](n2nc(-c3ccc(Oc4ccccc4)cc3)c(C(N)=O)c2N)C1 [Example 54] |

The molecules below were run against full-length human His-tagged BTK (Homo sapiens (Human), UniProt Q06187) (assay: BTK Assay (HTRF, Cisbio KinEASE-TK)). Conditions: 6 nM BTK, 30 uM ATP, 15 min preincubation.
full-length human His-tagged BTK, sequence (Q06187 whole entry): as the sequence (Q06187 whole entry) above
Format: biochemical
Description: An HTRF assay (Cisbio KinEASE-TK cat #62TKOPEC) was performed to quantitate the ability of test compounds to inhibit BTK mediated phosphorylation of substrate. Assays were assembled in 384 well plates where 6 nM of full-length human His-tagged BTK (Life Technologies cat # PV3587) and test compound at varying concentrations were preincubated for 15 minutes at 28° C. Then, 1 uM of TK substrate-biotin and 30 uM ATP were added and incubated for an additional 30 minutes at 28° C.

| IC50 [nM] | SMILES |
| --- | --- |
| 3.5 | C=CC(=O)N1CC2(CC(n3cc(C(N)=O)c(-c4ccc(Oc5ccccc5)cc4)n3)C2)C1 [Example 28] |
| 0.89 | CC#CC(=O)N1CC[C@]2(C1)C[C@@H](n1nc(-c3ccc(Oc4ccccc4)cc3)c(C(N)=O)c1N)C2 [Example 92] |
| 33 | NC(=O)c1cn([C@@H]2CCCN(C(=O)C#CCN3CCOCC3)C2)nc1-c1ccc(Oc2ccccc2)cc1 [Example 93] |
| 8200 | C=CC(=O)N1CCC[C@@H](n2cc(C(N)=O)c(-c3ccc(C(=O)N4CCCCC4)cc3)n2)C1 [Example 94] |
| 1600 | C=CC(=O)N1CCC[C@@H](n2cc(C(N)=O)c(-c3ccc(OCCOC)cc3)n2)C1 [Example 95] |
| 4.8 | C=CC(=O)N1CCC[C@@H](n2cc(C(N)=O)c(-c3ccc(Oc4ccccc4F)cc3)n2)C1 [Example 96] |
| 0.8 | C=CC(=O)NC1CC2(C1)CC(n1nc(-c3ccc(Oc4ccccc4)cc3)c(C(N)=O)c1N)C2 (stereo not shown) [Example 97] |
| 0.7 | CN(C)C/C=C/C(=O)N1CC[C@]2(C1)C[C@@H](n1nc(-c3ccc(Oc4ccccc4)cc3)c(C(N)=O)c1N)C2 [Example 98] |
| 3.2 | NC(=O)c1c(-c2ccc(Oc3ccccc3)cc2)nn([C@H]2C[C@]3(CCN(C(=O)/C=C/CN4CCOCC4)C3)C2)c1N [Example 99] |
| 0.8 | CN(C)C/C=C/C(=O)N1CC2(CC(n3nc(-c4ccc(Oc5ccccc5)cc4)c(C(N)=O)c3N)C2)C1 [Example 100] |
| 9.2 | C=CC(=O)N1CC2(CC(n3nc(-c4ccc(Oc5ccccc5)nc4)c(C(N)=O)c3N)C2)C1 [Example 101] |
| 2.7 | CC#CC(=O)N1CC2(CC(n3nc(-c4ccc(Oc5ccccc5)nc4)c(C(N)=O)c3N)C2)C1 [Example 102] |
| 2.8 | C=CC(=O)N1CC2(CC(n3nc(-c4ccc(Oc5ccccc5)cn4)c(C(N)=O)c3N)C2)C1 [Example 103] |
| 19 | C=CC(=O)N1CC2(CC(n3nc(-c4ccc(OCC5CC5)cc4)c(C(N)=O)c3N)C2)C1 [Example 104] |
| 13 | C=CC(=O)N1CC2(CC(n3nc(-c4ccc(OC(C)C)cc4)c(C(N)=O)c3N)C2)C1 [Example 105] |
| 14 | CC#CC(=O)N1CC2(CC(n3nc(-c4ccc(OC(F)(F)F)cc4)c(C(N)=O)c3N)C2)C1 [Example 108] |
| 24 | C=CC(=O)N1CC2(CC(n3nc(-c4ccc(OC(F)(F)F)cc4)c(C(N)=O)c3N)C2)C1 [Example 109] |
| 0.87 | CC#CC(=O)N1CC2(CC(n3nc(-c4ccc(Oc5ccccc5)cn4)c(C(N)=O)c3N)C2)C1 [Example 110] |
| 16 | C=CC(=O)N1CC2(CC(n3nc(-c4ccc(OCCC)cc4)c(C(N)=O)c3N)C2)C1 [Example 111] |
| 3.4 | C=CC(=O)N1CC[C@]2(C1)C[C@@H](n1nc(-c3ccc(Oc4ccccc4)nc3)c(C(N)=O)c1N)C2 [Example 114] |
| 12 | C=CC(=O)N1CC2(CC(n3nc(-c4ccc(OCC(F)(F)F)cc4)c(C(N)=O)c3N)C2)C1 [Example 116] |

| IC50 [nM] | SMILES |
| --- | --- |
| 1.1 | C=CC(=O)N1CC[C@]2(C1)C[C@@H](n1nc(-c3ccc(Oc4ccccc4)cn3)c(C(N)=O)c1N)C2 [Example 117] |
| 0.5 | CC#CC(=O)N1CC[C@]2(C1)C[C@@H](n1nc(-c3ccc(Oc4ccccc4)cn3)c(C(N)=O)c1N)C2 [Example 118] |
| 11 | CC#CC(=O)N1CC[C@]2(C1)C[C@@H](n1nc(-c3ccc(Oc4ccccc4)cn3)c(C(N)=O)c1N)C2 [Example 119] |
| 3.5 | C=CC(=O)N1CC[C@]2(C1)C[C@@H](n1nc(-c3ccc(Oc4ccccc4)cn3)c(C(N)=O)c1N)C2 [Example 120] |
| 17 | CC#CC(=O)N1CC[C@]2(C1)C[C@@H](n1nc(-c3ccc(Oc4ccccc4)nc3)c(C(N)=O)c1N)C2 [Example 122] |
| 9.1 | C=CC(=O)N1CC[C@]2(C1)C[C@@H](n1nc(-c3ccc(Oc4ccccc4)nc3)c(C(N)=O)c1N)C2 [Example 123] |
| 10 | C=CC(=O)N1CC2(CC(n3nc(-c4ccc(OC(C)C)c(Cl)c4)c(C(N)=O)c3N)C2)C1 [Example 124] |
| 28 | C=CC(=O)N1CC[C@]2(C1)C[C@@H](n1nc(-c3ccc(OCCC)cc3)c(C(N)=O)c1N)C2 [Example 126] |
| 15 | CC#CC(=O)N1CC[C@]2(C1)C[C@@H](n1nc(-c3ccc(OCCC)cc3)c(C(N)=O)c1N)C2 [Example 127] |
| 0.9 | CC#CC(=O)N1CC[C@]2(C1)C[C@H](n1nc(-c3ccc(C(F)(F)F)cc3)c(C(N)=O)c1N)C2 [Example 128] |
| 29 | CC#CC(=O)N1CC[C@]2(C1)C[C@@H](n1nc(-c3ccc(C(F)(F)F)cc3)c(C(N)=O)c1N)C2 [Example 129] |
| 6.4 | C=CC(=O)N1CC[C@]2(C1)C[C@H](n1nc(-c3ccc(C(F)(F)F)cc3)c(C(N)=O)c1N)C2 [Example 130] |
| 28 | C=CC(=O)N1CC[C@]2(C1)C[C@@H](n1nc(-c3ccc(C(F)(F)F)cc3)c(C(N)=O)c1N)C2 [Example 131] |
| 8.4 | C=CC(=O)N1CC2(CC(n3nc(-c4ccc(O)cc4)c(C(N)=O)c3N)C2)C1 [Example 133] |
| 120 | C=CC(=O)N1CC2(CC(n3nc(-c4ccc(OC5CCOC5)cc4)c(C(N)=O)c3N)C2)C1 (stereo not shown) [Example 134] |
| 26 | C=CC(=O)N1CC2(CC(n3nc(-c4ccc(Cl)c(C(F)(F)F)c4)c(C(N)=O)c3N)C2)C1 [Example 135] |
| 14 | CC#CC(=O)N1CC2(CC(n3nc(-c4ccc(Cl)c(C(F)(F)F)c4)c(C(N)=O)c3N)C2)C1 [Example 136] |
| 1.6 | CC#CC(=O)N1CC[C@]2(C1)C[C@H](n1nc(-c3ccc(F)c(OCC(F)(F)F)c3)c(C(N)=O)c1N)C2 [Example 137] |
| 2.2 | CC#CC(=O)N1CC2(CC(n3nc(-c4ccc(OCCC)c(F)c4)c(C(N)=O)c3N)C2)C1 [Example 138] |
| 16 | C=CC(=O)N1CC2(CC(n3nc(-c4ccc(OCCC)c(F)c4)c(C(N)=O)c3N)C2)C1 [Example 139] |
| 0.9 | CC#CC(=O)N1CC[C@]2(C1)C[C@H](n1nc(-c3ccc(OCCC)cc3)c(C(N)=O)c1N)C2 [Example 140] |

| IC50 [nM] | SMILES |
| --- | --- |
| 14 | CC#CC(=O)N1CC2(CC(n3nc(-c4ccc(C(F)(F)F)c(F)c4)c(C(N)=O)c3N)C2)C1 [Example 141] |
| 29 | C=CC(=O)N1CC2(CC(n3nc(-c4ccc(C(F)(F)F)c(F)c4)c(C(N)=O)c3N)C2)C1 [Example 142] |
| 37 | CC#CC(=O)N1CC2(CC(n3nc(-c4ccc(F)c(C(F)(F)F)c4)c(C(N)=O)c3N)C2)C1 [Example 143] |
| 72 | C=CC(=O)N1CC2(CC(n3nc(-c4ccc(F)c(C(F)(F)F)c4)c(C(N)=O)c3N)C2)C1 [Example 144] |
| 22 | C=CC(=O)N1CC[C@]2(C1)C[C@H](n1nc(-c3ccc(F)c(OCC(F)(F)F)c3)c(C(N)=O)c1N)C2 [Example 146] |
| 9.2 | CC#CC(=O)N1CC2(CC(n3nc(-c4ccc(C(F)(F)F)cc4)c(C(N)=O)c3N)C2)C1 [Example 147] |
| 3 | CC#CC(=O)N1CC2(CC(n3nc(-c4ccc(OCCC)c(Cl)c4)c(C(N)=O)c3N)C2)C1 [Example 148] |
| 100 | CC#CC(=O)N1CC2(CC(n3nc(-c4ccc(F)c(OCC(F)(F)F)c4)c(C(N)=O)c3N)C2)C1 [Example 149] |
| 0.8 | CC#CC(=O)N1CC[C@]2(C1)C[C@H](n1nc(-c3ccc(Oc4ccccc4)nc3)c(C(N)=O)c1N)C2 [Example 150] |
| 0.7 | CC#CC(=O)N1CC[C@]2(C1)C[C@H](n1nc(-c3ccc(Oc4ccccn4)cc3)c(C(N)=O)c1N)C2 [Example 151] |
| 1.5 | C=CC(=O)N1CC[C@]2(C1)C[C@H](n1nc(-c3ccc(Oc4ccccn4)cc3)c(C(N)=O)c1N)C2 [Example 152] |
| 2.3 | C=CC(=O)N1CC[C@]2(C1)C[C@H](n1nc(-c3ccc(OC)cc3)c(C(N)=O)c1N)C2 [Example 153] |
| 0.6 | CC#CC(=O)N1CC[C@]2(C1)C[C@H](n1nc(-c3ccc(OC)cc3)c(C(N)=O)c1N)C2 [Example 154] |
| 7.3 | C=CC(=O)N1CC[C@]2(C1)C[C@H](n1nc(-c3cccc(OC)c3)c(C(N)=O)c1N)C2 [Example 155] |
| 16 | C=CC(=O)N1CC[C@]2(C1)C[C@H](n1nc(-c3ccc(OC4CC4)cc3)c(C(N)=O)c1N)C2 [Example 156] |
| 2 | CC#CC(=O)N1CC[C@]2(C1)C[C@H](n1nc(-c3ccc(OC4CC4)cc3)c(C(N)=O)c1N)C2 [Example 157] |
| 9.2 | C=CC(=O)N1CC[C@]2(C1)C[C@H](n1nc(-c3ccc(OC(F)(F)F)cc3)c(C(N)=O)c1N)C2 [Example 162] |
| 0.9 | CC#CC(=O)N1CC[C@]2(C1)C[C@H](n1nc(-c3ccc(OCC)cc3)c(C(N)=O)c1N)C2 [Example 167] |
| 1.2 | CC#CC(=O)N1CC[C@]2(C1)C[C@H](n1nc(-c3ccc(OC(C)C)cc3)c(C(N)=O)c1N)C2 [Example 168] |
